Experimental findings from publication PMC5218480 (PLoS ONE, 2017) are described below.

The experiment relates to MV-4-11 cells. Put plainly: Gene expression microarray analysis (Affymetrix PrimeView) and GSEA. Format: cell-based, human. On the set-up: RFU PODN (11730768_x_at) / Fold change /veh PODN (11730768_x_at) / RFU LINC00158 (11744669_a_at) / Fold change /veh LINC00158 (11744669_a_at) / RFU DUSP10 (11751237_a_at) / Fold change /veh DUSP10 (11751237_a_at) / RFU ID3 (11757404_x_at) / Fold change /veh ID3 (11757404_x_at) / RFU PLEKHG5 (11737974_s_at) / Fold change /veh PLEKHG5 (11737974_s_at) / RFU LRRC4B (11730491_at) / Fold change /veh LRRC4B (11730491_at) / RFU GIMAP4 (11747438_a_at) / Fold change /veh GIMAP4 (11747438_a_at) / RFU KRT8 (11758183_x_at) / Fold change /veh KRT8 (11758183_x_at) / RFU CNN1 (11734310_a_at) / Fold change /veh CNN1 (11734310_a_at) / RFU VPS37D (11726825_at) / Fold change /veh VPS37D (11726825_at) / RFU C10orf10 (11716522_x_at) / Fold change /veh C10orf10 (11716522_x_at) / RFU KIR2DL2 /// KIR2DL4 /// KIR2DL5A /// KIR2DL5B /// KIR2DS1 /// KIR2DS2 /// KIR2DS3 /// KIR2DS4 /// KIR3DL3 /// KIR3DL3 /// KIR3DS1 (11738374_at) / Fold change /veh KIR2DL2 /// KIR2DL4 /// KIR2DL5A /// KIR2DL5B /// KIR2DS1 /// KIR2DS2 /// KIR2DS3 /// KIR2DS4 /// KIR3DL3 /// KIR3DL3 /// KIR3DS1 (11738374_at) / RFU C1QL1 (11718748_at) / Fold change /veh C1QL1 (11718748_at) / RFU TMPRSS4 (11747572_a_at) / Fold change /veh TMPRSS4 (11747572_a_at) / RFU HAMP (11756126_x_at) / Fold change /veh HAMP (11756126_x_at) / RFU RNFT2 (11725882_a_at) / Fold change /veh RNFT2 (11725882_a_at) / RFU NR4A2 (11747474_a_at) / Fold change /veh NR4A2 (11747474_a_at) / RFU ABCC12 (11746883_a_at) / Fold change /veh ABCC12 (11746883_a_at) / RFU TMEM136 (11760407_x_at) / Fold change /veh TMEM136 (11760407_x_at) / RFU CLDN22 /// WWC2 (11732394_at) / Fold change /veh CLDN22 /// WWC2 (11732394_at) / RFU HLA-DPB1 (11760878_x_at) / Fold change /veh HLA-DPB1 (11760878_x_at) / RFU SPINT1 (11716480_a_at) / Fold change /veh SPINT1 (11716480_a_at) / RFU GAP43 (11754022_s_at) / Fold change /veh GAP43 (11754022_s_at) / RFU A4GNT (11735810_at) / Fold change /veh A4GNT (11735810_at) / RFU PRB3 (11715151_x_at) / Fold change /veh PRB3 (11715151_x_at) / RFU TUBB4B (11761932_at) / Fold change /veh TUBB4B (11761932_at) / RFU CAPN14 (11732068_a_at) / Fold change /veh CAPN14 (11732068_a_at) / RFU TMCC2 (11721928_a_at) / Fold change /veh TMCC2 (11721928_a_at) / RFU IRGQ (11745062_a_at) / Fold change /veh IRGQ (11745062_a_at) / RFU FAM174B (11720279_a_at) / Fold change /veh FAM174B (11720279_a_at) / RFU TMPRSS4 (11748680_a_at) / Fold change /veh TMPRSS4 (11748680_a_at) / RFU FAM212B (11763350_a_at) / Fold change /veh FAM212B (11763350_a_at) / RFU PLEKHG5 (11743358_a_at) / Fold change /veh PLEKHG5 (11743358_a_at) / RFU ZSCAN30 (11745921_a_at) / Fold change /veh ZSCAN30 (11745921_a_at) / RFU CMKLR1 (11741424_a_at) / Fold change /veh CMKLR1 (11741424_a_at) / RFU LOC101060620 /// MAPK8IP1 (11723275_at) / Fold change /veh LOC101060620 /// MAPK8IP1 (11723275_at) / RFU SPTSSB (11747773_x_at) / Fold change /veh SPTSSB (11747773_x_at) / RFU PRSS12 (11739890_at) / Fold change /veh PRSS12 (11739890_at) / RFU BIN1 (11741810_x_at) / Fold change /veh BIN1 (11741810_x_at) / RFU WNT11 (11732464_a_at) / Fold change /veh WNT11 (11732464_a_at) / RFU C10orf10 (11716521_a_at) / Fold change /veh C10orf10 (11716521_a_at) / RFU C5orf56 (11738089_at) / Fold change /veh C5orf56 (11738089_at) / RFU CYB561 (11721691_x_at) / Fold change /veh CYB561 (11721691_x_at) / RFU ANKRD19P (11752326_a_at) / Fold change /veh ANKRD19P (11752326_a_at) / RFU OR2T12 /// OR2T33 /// OR2T8 (11738714_s_at) / Fold change /veh OR2T12 /// OR2T33 /// OR2T8 (11738714_s_at) / RFU VCAN (11748164_a_at) / Fold change /veh VCAN (11748164_a_at) / RFU JSRP1 (11732532_at) / Fold change /veh JSRP1 (11732532_at) / RFU KRTAP10-11 (11738290_x_at) / Fold change /veh KRTAP10-11 (11738290_x_at) / RFU MYO3A (11730013_a_at) / Fold change /veh MYO3A (11730013_a_at) / RFU EBF3 (11725865_a_at) / Fold change /veh EBF3 (11725865_a_at) / RFU CAMK2N1 (11719241_x_at) / Fold change /veh CAMK2N1 (11719241_x_at) / RFU C5orf56 (11738088_a_at) / Fold change /veh C5orf56 (11738088_a_at) / RFU OLFML3 (11715873_a_at) / Fold change /veh OLFML3 (11715873_a_at) / RFU LOC100653217 /// NTM (11731650_a_at) / Fold change /veh LOC100653217 /// NTM (11731650_a_at) / RFU MAPK11 (11762145_a_at) / Fold change /veh MAPK11 (11762145_a_at) / RFU FIZ1 (11724087_x_at) / Fold change /veh FIZ1 (11724087_x_at) / RFU OASL (11726364_x_at) / Fold change /veh OASL (11726364_x_at) / RFU SOX15 (11748057_x_at) / Fold change /veh SOX15 (11748057_x_at) / RFU CD79A (11719716_a_at) / Fold change /veh CD79A (11719716_a_at) / RFU HIST1H1D (11736915_at) / Fold change /veh HIST1H1D (11736915_at) / RFU CASKIN2 (11723855_a_at) / Fold change /veh CASKIN2 (11723855_a_at) / RFU LOC730098 (11760151_x_at) / Fold change /veh LOC730098 (11760151_x_at) / RFU OR4N2 (11742367_at) / Fold change /veh OR4N2 (11742367_at) / RFU PRRT2 (11749266_a_at) / Fold change /veh PRRT2 (11749266_a_at) / RFU SNX32 (11753110_a_at) / Fold change /veh SNX32 (11753110_a_at) / RFU CDHR5 (11726645_a_at) / Fold change /veh CDHR5 (11726645_a_at) / RFU RCAN1 (11760418_a_at) / Fold change /veh RCAN1 (11760418_a_at) / RFU FAM167A (11723789_a_at) / Fold change /veh FAM167A (11723789_a_at) / RFU FAM26E (11764081_at) / Fold change /veh FAM26E (11764081_at) / RFU ISYNA1 (11749810_s_at) / Fold change /veh ISYNA1 (11749810_s_at) / RFU ACY1 (11761880_at) / Fold change /veh ACY1 (11761880_at) / RFU 11764098_at / Fold change /veh 11764098_at / RFU SAMD14 (11745864_x_at) / Fold change /veh SAMD14 (11745864_x_at) / RFU NPB (11741838_a_at) / Fold change /veh NPB (11741838_a_at) / RFU TMPRSS6 (11731388_a_at) / Fold change /veh TMPRSS6 (11731388_a_at) / RFU KRTAP10-2 (11738614_at) / Fold change /veh KRTAP10-2 (11738614_at) / RFU ARHGAP8 /// PRR5-ARHGAP8 (11727945_x_at) / Fold change /veh ARHGAP8 /// PRR5-ARHGAP8 (11727945_x_at) / RFU KRTAP5-7 /// NADSYN1 (11734609_at) / Fold change /veh KRTAP5-7 /// NADSYN1 (11734609_at) / RFU RASL12 (11751679_a_at) / Fold change /veh RASL12 (11751679_a_at) / RFU CDKN2B (11736163_a_at) / Fold change /veh CDKN2B (11736163_a_at) / RFU PRF1 (11729649_at) / Fold change /veh PRF1 (11729649_at) / RFU, ZNF638 /// ZNF638-IT1 / Fold change vs veh, ZNF638 /// ZNF638-IT1 / RFU, PANK3 / Fold change vs veh, PANK3 / RFU, SH3YL1 / Fold change vs veh, SH3YL1 / RFU, ZEB2 / Fold change vs veh, ZEB2 / RFU, NRIP1 / Fold change vs veh, NRIP1 / RFU, PTTG1IP / Fold change vs veh, PTTG1IP / RFU, CAPN2 / Fold change vs veh, CAPN2 / RFU, MED14 / Fold change vs veh, MED14 / RFU, SNORA58 / Fold change vs veh, SNORA58 / RFU, C1orf63 / Fold change vs veh, C1orf63 / RFU, LRRFIP1 / Fold change vs veh, LRRFIP1 / RFU, NDUFAF7 / Fold change vs veh, NDUFAF7 / RFU, SLC12A2 / Fold change vs veh, SLC12A2 / RFU, IBTK / Fold change vs veh, IBTK / RFU, ESF1 / Fold change vs veh, ESF1 / Fold change vs veh, TMEM50B / RFU, TAOK1 / Fold change vs veh, TAOK1 / RFU, ACBD3 / Fold change vs veh, ACBD3 / RFU, TMA16 / Fold change vs veh, TMA16 / RFU, RWDD3 / Fold change vs veh, RWDD3 / RFU, BCAT1 / Fold change vs veh, BCAT1 / RFU, EDEM3 / Fold change vs veh, EDEM3 / RFU, TMEM33 / Fold change vs veh, TMEM33 / RFU, WDR75 / Fold change vs veh, WDR75 / RFU, AHCTF1 / Fold change vs veh, AHCTF1 / RFU, TFRC / Fold change vs veh, TFRC / RFU, ZDHHC17 / Fold change vs veh, ZDHHC17 / RFU, NOM1 / Fold change vs veh, NOM1 / RFU, ARL8B / Fold change vs veh, ARL8B / RFU, ZBTB11 / Fold change vs veh, ZBTB11 / RFU, TAMM41 / Fold change vs veh, TAMM41 / RFU, KIAA1704 /// LOC100996395 / Fold change vs veh, KIAA1704 /// LOC100996395 / RFU, ING1 / Fold change vs veh, ING1 / RFU, TRMT61B / Fold change vs veh, TRMT61B / RFU, FUBP3 / Fold change vs veh, FUBP3 / RFU, TP53 / Fold change vs veh, TP53 / RFU, TNKS2 / Fold change vs veh, TNKS2 / RFU, ZFP14 / Fold change vs veh, ZFP14 / RFU, ACTR2 / Fold change vs veh, ACTR2 / RFU, PPP3R1 / Fold change vs veh, PPP3R1 / RFU, PIK3R1 / Fold change vs veh, PIK3R1 / RFU, HNRNPA1 / Fold change vs veh, HNRNPA1 / RFU, RNF170 / Fold change vs veh, RNF170 / RFU, ZNF28 / Fold change vs veh, ZNF28 / RFU, RNGTT / Fold change vs veh, RNGTT / RFU, OGT / Fold change vs veh, OGT / RFU, BRD1 / Fold change vs veh, BRD1 / RFU, MARS / Fold change vs veh, MARS / RFU, ZNF655 / Fold change vs veh, ZNF655 / RFU, FAHD1 / Fold change vs veh, FAHD1 / RFU, BDP1 / Fold change vs veh, BDP1 / RFU, LRRCC1 / Fold change vs veh, LRRCC1 / RFU, ARID1A / Fold change vs veh, ARID1A / RFU, ZNF146 / Fold change vs veh, ZNF146 / RFU, ZNF330 / Fold change vs veh, ZNF330 / RFU, GPN3 / Fold change vs veh, GPN3 / RFU, C9orf123 / Fold change vs veh, C9orf123 / RFU, N4BP2L2 / Fold change vs veh, N4BP2L2 / RFU, ARFIP1 / Fold change vs veh, ARFIP1 / RFU, FAM179B / Fold change vs veh, FAM179B / RFU, BCL10 / Fold change vs veh, BCL10 / RFU, UHRF1BP1L / Fold change vs veh, UHRF1BP1L / RFU, BET1 / Fold change vs veh, BET1 / RFU, CNOT2 / Fold change vs veh, CNOT2 / RFU, ZNF268 / Fold change vs veh, ZNF268 / Fold change vs veh, ZNF507 / RFU, DGCR2 / Fold change vs veh, DGCR2 / RFU, WDSUB1 / Fold change vs veh, WDSUB1 / Fold change vs veh, HSP90B1 /// MIR3652 / RFU, ADSS / Fold change vs veh, ADSS / RFU, GK / Fold change vs veh, GK / RFU, ZNF148 / Fold change vs veh, ZNF148 / RFU, TAF9 / Fold change vs veh, TAF9 / RFU, SLC1A5 / Fold change vs veh, SLC1A5 / RFU, SLMO2 / Fold change vs veh, SLMO2 / RFU, ABCC4 / Fold change vs veh, ABCC4 / RFU, LOC101060439 /// RAP1B / Fold change vs veh, LOC101060439 /// RAP1B / RFU, RFX7 / Fold change vs veh, RFX7 / RFU, GTPBP10 / Fold change vs veh, GTPBP10 / RFU, CNEP1R1 / Fold change vs veh, CNEP1R1 / RFU, BIVM-ERCC5 /// ERCC5 / Fold change vs veh, BIVM-ERCC5 /// ERCC5 / RFU, ILF3 / Fold change vs veh, ILF3 / RFU 11762660_at / Fold change /veh 11762660_at / RFU VCAN (11757783_s_at) / Fold change /veh VCAN (11757783_s_at) / RFU DDX43 (11728927_at) / Fold change /veh DDX43 (11728927_at) / RFU KRT8 (11758188_x_at) / Fold change /veh KRT8 (11758188_x_at) / RFU NKD1 (11759106_at) / Fold change /veh NKD1 (11759106_at) / RFU SRD5A1 (11742802_a_at) / Fold change /veh SRD5A1 (11742802_a_at) / RFU TPSAB1 /// TPSB2 (11721975_s_at) / Fold change /veh TPSAB1 /// TPSB2 (11721975_s_at) / RFU GSTM3 (11746129_a_at) / Fold change /veh GSTM3 (11746129_a_at) / RFU IL23R (11737362_x_at) / Fold change /veh IL23R (11737362_x_at) / RFU TMEM51 (11727254_a_at) / Fold change /veh TMEM51 (11727254_a_at) / RFU PIWIL2 (11732686_x_at) / Fold change /veh PIWIL2 (11732686_x_at) / RFU ORM1 (11744905_x_at) / Fold change /veh ORM1 (11744905_x_at) / RFU CCDC152 (11743942_at) / Fold change /veh CCDC152 (11743942_at) / RFU ECM1 (11717891_a_at) / Fold change /veh ECM1 (11717891_a_at) / RFU IL23R (11748794_a_at) / Fold change /veh IL23R (11748794_a_at) / RFU TNFAIP8L3 (11732012_x_at) / Fold change /veh TNFAIP8L3 (11732012_x_at) / RFU MBOAT4 (11741988_at) / Fold change /veh MBOAT4 (11741988_at) / RFU 11764193_at / Fold change /veh 11764193_at / RFU TMEM53 (11763286_at) / Fold change /veh TMEM53 (11763286_at) / RFU MAGEB2 (11727129_at) / Fold change /veh MAGEB2 (11727129_at) / RFU TMEM200A (11744735_a_at) / Fold change /veh TMEM200A (11744735_a_at) / RFU CCDC152 (11751479_a_at) / Fold change /veh CCDC152 (11751479_a_at) / RFU FAM211A (11726209_a_at) / Fold change /veh FAM211A (11726209_a_at) / RFU RGS16 (11746705_a_at) / Fold change /veh RGS16 (11746705_a_at) / RFU VCAN (11755009_s_at) / Fold change /veh VCAN (11755009_s_at) / RFU RHOB (11743442_s_at) / Fold change /veh RHOB (11743442_s_at) / RFU RGS16 (11720943_a_at) / Fold change /veh RGS16 (11720943_a_at) / RFU RGS16 (11720944_at) / Fold change /veh RGS16 (11720944_at) / RFU, VPS4B / Fold change vs veh, VPS4B / RFU, CREB1 / Fold change vs veh, CREB1 / RFU, DNAJC13 / Fold change vs veh, DNAJC13 / RFU, GNAQ / Fold change vs veh, GNAQ / RFU, CDK5R1 / Fold change vs veh, CDK5R1 / RFU, ZRANB3 / Fold change vs veh, ZRANB3 / RFU, CUL4A / Fold change vs veh, CUL4A / RFU, CCNY / Fold change vs veh, CCNY / RFU, UFL1 / Fold change vs veh, UFL1 / RFU, COG3 / Fold change vs veh, COG3 / RFU, DIAPH2 / Fold change vs veh, DIAPH2 / RFU, SKA2 / Fold change vs veh, SKA2 / RFU, AFF3 / Fold change vs veh, AFF3 / RFU, LMF1 / Fold change vs veh, LMF1 / RFU, IPO11 / Fold change vs veh, IPO11 / RFU, DFFB / Fold change vs veh, DFFB / RFU, FOXP1 / Fold change vs veh, FOXP1 / RFU, CARD8 / Fold change vs veh, CARD8 / RFU, STRN3 / Fold change vs veh, STRN3 / RFU, ADK / Fold change vs veh, ADK / RFU, RASSF2 / Fold change vs veh, RASSF2 / RFU, WIPF1 / Fold change vs veh, WIPF1 / RFU, LARP1B / Fold change vs veh, LARP1B / RFU, RASA1 / Fold change vs veh, RASA1 / RFU, RB1 / Fold change vs veh, RB1 / RFU, PPFIA1 / Fold change vs veh, PPFIA1 / RFU, MAT2A / Fold change vs veh, MAT2A / RFU, CCT5 / Fold change vs veh, CCT5 / RFU, WDR92 / Fold change vs veh, WDR92 / RFU, CUX1 / Fold change vs veh, CUX1 / RFU, TTC7A / Fold change vs veh, TTC7A / RFU, TMEM135 / Fold change vs veh, TMEM135 / RFU, DEPTOR / Fold change vs veh, DEPTOR / RFU, CPM / Fold change vs veh, CPM / RFU, DNAJB6 / Fold change vs veh, DNAJB6 / RFU, CACNA2D3 / Fold change vs veh, CACNA2D3 / RFU, DTX4 / Fold change vs veh, DTX4 / RFU, TFCP2 / Fold change vs veh, TFCP2 / RFU, GMCL1 /// GMCL1P1 / Fold change vs veh, GMCL1 /// GMCL1P1 / RFU, AEBP2 / Fold change vs veh, AEBP2 / RFU, SNHG1 /// SNORD22 /// SNORD25 /// SNORD26 /// SNORD27 /// SNORD28 /// SNORD29 /// SNORD31 / Fold change vs veh, SNHG1 /// SNORD22 /// SNORD25 /// SNORD26 /// SNORD27 /// SNORD28 /// SNORD29 /// SNORD31 / Fold change (Aza/veh), C12orf56 (ProbeSet 11735607_a_at) / Fold change (ACY-1035/veh), C12orf56 (ProbeSet 11735607_a_at) / Fold change (Aza/veh), FGFR1OP (ProbeSet 11751329_s_at) / Fold change (ACY-1035/veh), FGFR1OP (ProbeSet 11751329_s_at) / Fold change (Aza/veh), VPS36 (ProbeSet 11739960_a_at) / Fold change (ACY-1035/veh), VPS36 (ProbeSet 11739960_a_at) / RFU SYPL1 (11715823_x_at) / Fold change /veh SYPL1 (11715823_x_at) / RFU IGFBP7 (11715501_s_at) / Fold change /veh IGFBP7 (11715501_s_at) / RFU REEP3 (11722064_at) / Fold change /veh REEP3 (11722064_at) / RFU IGLL1 (11728026_x_at) / Fold change /veh IGLL1 (11728026_x_at): dose or concentration left out as unconfirmed. Particulars: ProbeSet 11755425_a_at; LIST B.

Molecules are shown by their SMILES.

For the molecule `Nc1ccc(-c2cccs2)cc1NC(=O)c1ccc2c(c1)cc(C1CC1)n2CCN1CCOCC1` [ACY-1035], the “Fold change vs veh, FAM179B” value was found to be 1.02.
